Test results as given in patent EP2123641A1, “CRYSTAL, AMORPHOUS FORM AND SALT OF METHYL N-Ý3-(6,7-DIMETHOXY- 2-METHYLAMINOQUINAZOLIN-4-YL)PHENYL¨[…] ACID” (priority 2007, dated 2008).
Where two headings read alike, the source gives them in different places.

Experiments:
Conditions in all cases: human, 2880 min
CYP1A1 = tested on: CYP1A1
Procedure: Cryopreserved human hepatocytes (XenoTeek) were rapidly thawed at 37°C, and viable cells were obtained using Hepatocytes Isolation Kit (Nosan Corporation). […] Then, the medium was replaced with Hepato-STIM (registered trade mark: BD Biosciences) (+EGF, PSG, -FBS), and the cells were further cultured at 37°C in 5% CO2 for 24 hours. […] The culture medium containing test compound, β-NF or Rif was replaced every 24 hours. […] The levels of mRNA for CYP1A1 and GAPDH were quantified using SYBR Green PCR Core Reagents Kit (Applied Biosystems), and those for CYP1A2 and that of CYP3A4 were measured using Taqman PCR Core Reagents Kit (Applied Biosystems) and ABI Prism 7900 Sequence Detection System (Applied Biosystems).

CYP1A2 = tested on: CYP1A2
Procedure: (§1) Cryopreserved human hepatocytes (XenoTeek) were rapidly thawed at 37°C, and viable cells were obtained using Hepatocytes Isolation Kit (Nosan Corporation). After cells prepared were diluted with ice cold William's Medium E (10% FBS, +PSG) to give a concentration of 5 x 10^5 viable cells/mL, the cells were seeded onto a 48-well collagen-coated plate (BD Biosciences) at a concentration of 1 x 10^5 cells/cm^2 and cultured at 37°C in 5% CO2 for 24 hours. Then, the medium was replaced with Hepato-STIM (registered trade mark: BD Biosciences) (+EGF, PSG, -FBS), and the cells were further cultured at 37°C in 5% CO2 for 24 hours. […] The culture medium containing test compound, β-NF or Rif was replaced every 24 hours. Test compound, β-NF and Rif were each dissolved in dimethyl sulfoxide (DMSO: Wako Pure Chemical Industries, Ltd.), and culture medium containing test compound (final concentrations; 1, 3 and 10µM), β-NF (final concentration; 10µM) or Rif (final concentration; 10µM) was prepared by adding them to Hepato-STIM(+EGF, PSG, -FBS), respectively. […] The levels of mRNA for CYP1A1 and GAPDH were quantified using SYBR Green PCR Core Reagents Kit (Applied Biosystems), and those for CYP1A2 and that of CYP3A4 were measured using Taqman PCR Core Reagents Kit (Applied Biosystems) and ABI Prism 7900 Sequence Detection System (Applied Biosystems).
(§2) The ability of a test compound to induce CYP1A1 was calculated as follows: Ability of a test compound to induce CYP1A1 (%) = {[(amount of mRNA of CYP1A1 in test compound treated cells)/(amount of mRNA of GAPDH in test compound treated cells)]/[(amount of mRNA of CYP1A1 in control cells)/(amount of mRNA of GAPDH in control cells)] - 1}/{[(amount of mRNA of CYP1A1 in positive control treated cells)/(amount of mRNA of GAPDH in positive control treated cells)]/[(amount of mRNA of CYP1A1 in control cells)/(amount of mRNA of GAPDH in control cells)] -1} x 100 The ability to induce CYP1A2 or CYP3A4 was calculated in the same manner described above.

CYP3A4 = tested on: CYP3A4
Procedure: as §1, §2

Row | Induction Ability compared to positive control (%) CYP1A1 (CYP1A1; 10 uM) [%] | Induction Ability compared to positive control (%) CYP1A1 (CYP1A1; 1 uM) [%] | Induction Ability compared to positive control (%) CYP1A1 (CYP1A1; 3 uM) [%] | Induction Ability compared to positive control (%) CYP1A2 (CYP1A2; 1 uM) [%] | Induction Ability compared to positive control (%) CYP1A2 (CYP1A2; 3 uM) [%] | Induction Ability compared to positive control (%) CYP1A2 (CYP1A2; 10 uM) [%] | Induction Ability compared to positive control (%) CYP3A4 (CYP3A4; 1 uM) [%] | Induction Ability compared to positive control (%) CYP3A4 (CYP3A4; 3 uM) [%] | Induction Ability compared to positive control (%) CYP3A4 (CYP3A4; 10 uM) [%] | SMILES
1 | 100.0 |  |  |  |  |  |  |  |  | O=c1cc(-c2ccccc2)oc2ccc3ccccc3c12 [β-naphthoflavone, reference compound]
2 | 4.6 | 0.1 | 0.6 | -0.1 | -0.7 | 2.5 | -2.4 | -3.4 | -4.0 | CNc1nc(-c2cccc(NC(=O)c3ccc(C(=O)OC)cc3)c2)c2cc(OC)c(OC)cc2n1 [Example 1, methyl N-[3-(6,7-dimethoxy-2-methylaminoquinazolin-4-yl)phenyl]terephthalamic acid]
